Like-named read-outs stand apart in the source and are kept apart here.
Columns and labels:
[1] = molecular target: T1, Recombinant EGFR (Homo sapiens, UniProt P00533); experiment: EGFR binding affinity (LanthaScreen TR-FRET); settings: Kinase Tracer 199, 5 h incubation
T1 construct: purchased Invitrogen
Method: EGFR binding affinity was determined using a time-resolved fluorescence resonance energy transfer (TR-FRET) methodology. […] Recombinant EGFR and all LanthaScreen™ components were purchased from Invitrogen. Measurements were performed in a reaction volume of 30 μL using half-area 96-well assay plates. […] Binding affinity was determined for each compound by measuring TR-FRET signal at various concentrations of compound and plotting the relative fluorescence units against the inhibitor concentration to estimate the IC50 from log[Inhibitor] vs response using the Variable Slope model in Graphpad prism from Graphpad software (San Diego, Calif.).

[2] = molecular target: T2, Recombinant BTK^C481S kinase (Homo sapiens, UniProt Q06187, C481S); experiment: BTK C481S binding affinity (LanthaScreen TR-FRET); settings: Kinase Tracer 236, 5 h incubation
T2 construct: purchased SignalChem
Method: (§1) BTK^C481S binding affinity of each compound tested was determined using a time-resolved fluorescence resonance energy transfer (TR-FRET) methodology. 5 nM Recombinant BTK^WT kinase, varying concentrations of inhibitor, 2 nM LanthaScreen™ Eu anti-His Antibody and 30 nM Kinase Tracer 236 was incubated in 1× LanthaScreen™ Kinase Buffer A for 5 h. Recombinant BTK^C481S kinase was purchased from SignalChem and all LanthaScreen™ components were purchased from Invitrogen. Measurements were performed in a reaction volume of 30 μL using half-area 96-well assay plates. The TR-FRET signal was read on a plate reader with an excitation wavelength of 340 nm and detection wavelengths of 615 and 665 nm. Binding affinity was determined for each compound by measuring TR-FRET signal at various concentrations of compound and plotting the relative fluorescence units against the inhibitor concentration to estimate the IC50 from log[Inhibitor] vs response using the Variable Slope model in Graphpad prism from Graphpad software (San Diego, Calif.).

[3] = molecular target: T3, Recombinant BTK^WT kinase (Homo sapiens, UniProt Q06187); experiment: BTK WT binding affinity (LanthaScreen TR-FRET); settings: Kinase Tracer 236, 5 h incubation
T3 construct: purchased Invitrogen
Method: as §1, with “BTK^WT binding” for “BTK^C481S binding”, “methodology. 2.5” for “methodology. 5”, “and 15” for “and 30”, “Recombinant BTK” for “Recombinant BTK^C481S”, “kinase” for “kinase was purchased from SignalChem”

[4] = tested on: OCI-Ly10 human DLBCL cells; experiment: OCI-Ly10 anti-proliferative activity (Resazurin); format: cell-based; settings: OCI-Ly10 cells, 72 h compound treatment, Resazurin, read-out: Proliferation Assay OCI-Ly10-20% FBS
Method: Compounds were assayed for effects on the growth of OCI-Ly10 human DLBCL cells that are dependent on NFκB signalling. […] Cells were then plated at 7.5×10^3 cells per well in 96-well plates in varying concentrations of compound and incubated for 72 h at 37° C. An additional plate of cells to be used as the Day 0 read was seeded without compound addition, Resazurin was added to each well, incubated for 5 h and the fluorescence measured at 590 nm. After 72 h of compound treatment, Resazurin was added to each well of the compound treated plates, incubated for 5 h and the fluorescence measured at 590 nm. The IC50 was then calculated by subtracting the average Day 0 value from each well value from the treated plates, each treatment was then calculated as a percentage of the DMSO control and the percentages plotted against the inhibitor concentration to estimate the IC50 from log[Inhibitor] vs response using the Variable Slope model in Graphpad prism from Graphpad software (San Diego, Calif.).

T2 sequence (Q06187 whole entry C481S): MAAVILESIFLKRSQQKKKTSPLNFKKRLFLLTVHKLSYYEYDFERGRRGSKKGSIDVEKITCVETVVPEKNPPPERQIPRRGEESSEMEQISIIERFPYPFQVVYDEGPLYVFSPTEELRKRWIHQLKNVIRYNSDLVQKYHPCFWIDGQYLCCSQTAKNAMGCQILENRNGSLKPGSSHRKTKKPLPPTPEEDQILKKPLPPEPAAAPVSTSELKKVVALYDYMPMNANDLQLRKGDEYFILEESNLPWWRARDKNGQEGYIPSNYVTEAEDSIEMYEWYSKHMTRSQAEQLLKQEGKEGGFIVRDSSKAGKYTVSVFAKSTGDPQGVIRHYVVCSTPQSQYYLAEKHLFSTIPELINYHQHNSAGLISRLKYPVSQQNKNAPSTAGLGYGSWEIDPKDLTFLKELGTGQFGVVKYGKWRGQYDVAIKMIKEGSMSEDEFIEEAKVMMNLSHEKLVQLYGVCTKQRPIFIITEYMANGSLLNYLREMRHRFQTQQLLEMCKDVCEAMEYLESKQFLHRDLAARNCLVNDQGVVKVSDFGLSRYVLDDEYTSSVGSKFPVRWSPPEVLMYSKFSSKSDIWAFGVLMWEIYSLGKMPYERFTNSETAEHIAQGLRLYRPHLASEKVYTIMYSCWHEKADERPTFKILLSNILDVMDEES
T3 sequence (Q06187 whole entry): as the sequence (Q06187 whole entry C481S) above, with S481C counted along it
T1 sequence (P00533 25-1210): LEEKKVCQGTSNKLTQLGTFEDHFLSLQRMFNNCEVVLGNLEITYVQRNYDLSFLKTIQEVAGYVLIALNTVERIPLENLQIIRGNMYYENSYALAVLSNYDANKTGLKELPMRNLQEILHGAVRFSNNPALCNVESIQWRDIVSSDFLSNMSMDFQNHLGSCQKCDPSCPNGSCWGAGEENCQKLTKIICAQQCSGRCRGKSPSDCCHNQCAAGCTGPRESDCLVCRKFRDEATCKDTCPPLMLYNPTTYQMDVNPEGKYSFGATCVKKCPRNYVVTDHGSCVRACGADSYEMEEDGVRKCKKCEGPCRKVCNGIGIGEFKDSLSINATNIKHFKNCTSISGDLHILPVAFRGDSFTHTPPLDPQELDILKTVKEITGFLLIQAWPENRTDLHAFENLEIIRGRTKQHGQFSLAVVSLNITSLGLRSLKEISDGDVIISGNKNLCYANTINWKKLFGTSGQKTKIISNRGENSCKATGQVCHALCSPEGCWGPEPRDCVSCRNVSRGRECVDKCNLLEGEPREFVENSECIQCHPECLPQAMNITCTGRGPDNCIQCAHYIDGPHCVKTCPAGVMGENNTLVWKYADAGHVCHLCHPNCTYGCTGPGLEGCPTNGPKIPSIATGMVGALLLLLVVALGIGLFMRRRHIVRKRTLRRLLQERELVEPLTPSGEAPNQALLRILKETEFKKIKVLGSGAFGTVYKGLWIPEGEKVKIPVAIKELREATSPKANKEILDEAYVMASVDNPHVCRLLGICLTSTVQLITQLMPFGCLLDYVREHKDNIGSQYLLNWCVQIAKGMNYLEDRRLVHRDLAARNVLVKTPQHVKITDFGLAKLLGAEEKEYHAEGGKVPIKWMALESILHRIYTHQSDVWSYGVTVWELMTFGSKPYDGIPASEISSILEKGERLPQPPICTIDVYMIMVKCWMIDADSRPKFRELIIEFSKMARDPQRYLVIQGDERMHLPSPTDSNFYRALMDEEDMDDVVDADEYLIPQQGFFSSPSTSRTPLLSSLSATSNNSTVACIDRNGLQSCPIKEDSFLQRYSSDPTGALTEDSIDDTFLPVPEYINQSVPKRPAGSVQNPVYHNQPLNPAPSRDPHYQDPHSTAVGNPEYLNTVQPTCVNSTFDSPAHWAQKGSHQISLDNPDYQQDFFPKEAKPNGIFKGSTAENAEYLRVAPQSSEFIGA

| SMILES | IC50 [1] [µM] | IC50 [2] [µM] | IC50 [3] [µM] | IC50 ([4]; Homo sapiens, OCI-Ly10, 72 h) [µM] | IC50 [4] [µM] |
| --- | --- | --- | --- | --- | --- |
| COc1ccccc1C(=O)NCc1ccc(-c2nn([C@H]3CC[C@H](F)C3)c(N)c2C(N)=O)cc1 (relative stereo) [Example 41, 5-amino-1-[(1S*,3S*)-3-fluorocyclopentyl]-3-[4-[[(2-methoxybenzoyl)amino]methyl]phenyl]pyrazole-4-carboxamide] | 0.1 to 1 | < 0.01 | < 0.01 | 0.01 to 0.1 | – |
| COc1ccccc1C(=O)NCc1ccc(-c2nn([C@H]3CC[C@H](O)C3)c(N)c2C(N)=O)cc1 (relative stereo) [Example 46, 5-Amino-1-[(1S*,3S*)-3-hydroxycyclopentyl]-3-[4-[[(2-methoxybenzoyl)amino]methyl]phenyl]pyrazole-4-carboxamide] | 0.1 to 1 | < 0.01 | < 0.01 | 0.01 to 0.1 | – |
| COc1ccccc1C(=O)NCc1ccc(-c2nn([C@@H]3COC[C@H]3O)c(N)c2C(N)=O)cc1 (relative stereo) [Example 94, 5-amino-1-[trans-4-hydroxytetrahydrofuran-3-yl]-3-[4-[[(2-methoxybenzoyl)amino]methyl]phenyl]pyrazole-4-carboxamide] | 1 to 10 | < 0.01 | 0.01 to 0.1 | 1 to 10 | – |
| COc1ccccc1C(=O)NCc1ccc(-c2nn(C3CCC(C)(O)CC3)c(N)c2C(N)=O)cc1 (single isomer, unassigned) [Example 33, 5-Amino-1-(4-hydroxy-4-methyl-cyclohexyl)-3-[4-[[(2-methoxybenzoyl)amino]methyl]phenyl]pyrazole-4-carboxamide] | 0.1 to 1 | < 0.01 | < 0.01 | 0.01 to 0.1 | – |
| COc1ccccc1C(=O)NCc1ccc(-c2nn(C3CCC(O)CC3)c(N)c2C(N)=O)cc1 (single isomer, unassigned) [Example 34a, 5-Amino-1-(4-hydroxycyclohexyl)-3-[4-[[(2-methoxybenzoyl)amino]methyl]phenyl]pyrazole-4-carboxamide] | 0.1 to 1 | < 0.01 | < 0.01 | – | 0.01 to 0.1 |
| COc1ccccc1C(=O)NCc1ccc(-c2nn(C3CCC(O)CC3)c(N)c2C(N)=O)cc1 (single isomer, unassigned) [Example 34b, 5-Amino-1-(4-hydroxycyclohexyl)-3-[4-[[(2-methoxybenzoyl)amino]methyl]phenyl]pyrazole-4-carboxamide] | 1 to 10 | < 0.01 | < 0.01 | 0.01 to 0.1 | – |
| CCOC(=O)C1CCCC(n2nc(-c3ccc(CNC(=O)c4ccccc4OC)cc3)c(C(N)=O)c2N)C1 (single isomer, unassigned) [Example 55, ethyl 3-[5-amino-4-carbamoyl-3-[4-[[(2-methoxybenzoyl)amino]methyl]phenyl]pyrazol-1-yl]cyclohexanecarboxylate] | 0.1 to 1 | < 0.01 | < 0.01 | – | 0.01 to 0.1 |
| COc1ccccc1C(=O)NCc1ccc(-c2nn(C3CCC(C(=O)N(C)C)CC3)c(N)c2C(N)=O)cc1 (single isomer, unassigned) [Example 57a, 5-amino-1-[4-(dimethylcarbamoyl)cyclohexyl]-3-[4-[[(2-methoxybenzoyl)amino]methyl]phenyl]pyrazole-4-carboxamide] | 0.1 to 1 | < 0.01 | < 0.01 | – | 0.01 to 0.1 |
| COc1ccccc1C(=O)NCc1ccc(-c2nn(C3CCC(C(=O)N(C)C)CC3)c(N)c2C(N)=O)cc1 (single isomer, unassigned) [Example 57b, 5-amino-1-[4-(dimethylcarbamoyl)cyclohexyl]-3-[4-[[(2-methoxybenzoyl)amino]methyl]phenyl]pyrazole-4-carboxamide] | 0.1 to 1 | < 0.01 | < 0.01 | – | 0.1 to 1 |
| CCOC(=O)C1CCCC(n2nc(-c3ccc(CNC(=O)c4ccccc4OC)cc3)c(C(N)=O)c2N)C1 (single isomer, unassigned) [Example 58, ethyl 3-[5-amino-4-carbamoyl-3-[4-[[(2-methoxybenzoyl)amino]methyl]phenyl]pyrazol-1-yl]cyclohexanecarboxylate] | 1 to 10 | < 0.01 | < 0.01 | 0.01 to 0.1 | – |
| COc1ccccc1C(=O)NCc1ccc(-c2nn(C3CCCC(C(=O)N(C)C)C3)c(N)c2C(N)=O)cc1 (single isomer, unassigned) [Example 70, 5-amino-1-[3-(dimethylcarbamoyl)cyclohexyl]-3-[4-[[(2-methoxybenzoyl)amino]methyl]phenyl]pyrazole-4-carboxamide] | 0.1 to 1 | < 0.01 | < 0.01 | 0.01 to 0.1 | – |
| COc1ccccc1C(=O)NCc1ccc(-c2nn(C3CCOC3C)c(N)c2C(N)=O)cc1 (single isomer, unassigned) [Example 77, 5-amino-3-[4-[[(2-methoxybenzoyl)amino]methyl]phenyl]-1-[2-methyltetrahydrofuran-3-yl]pyrazole-4-carboxamide] | 0.1 to 1 | < 0.01 | < 0.01 | – | 0.01 to 0.1 |
| COc1ccccc1C(=O)NCc1ccc(-c2nn(C3CCOC3C)c(N)c2C(N)=O)cc1 (single isomer, unassigned) [Example 84, 5-amino-3-[4-[[(2-methoxybenzoyl)amino]methyl]phenyl]-1-[2-methyltetrahydrofuran-3-yl]pyrazole-4-carboxamide] | 1 to 10 | < 0.01 | 0.01 to 0.1 | – | 1 to 10 |
| COc1ccccc1C(=O)NCc1ccc(-c2nn(C3CCOCC3F)c(N)c2C(N)=O)cc1 (single isomer, unassigned) [Example 95, 5-amino-1-[3-fluorotetrahydropyran-4-yl]-3-[4-[[(2-methoxybenzoyl)amino]methyl]phenyl]pyrazole-4-carboxamide] | 1 to 10 | < 0.01 | 0.01 to 0.1 | – | 0.1 to 1 |
| COc1ccccc1C(=O)NCc1ccc(-c2nn(C3CCOCC3F)c(N)c2C(N)=O)cc1 (single isomer, unassigned) [Example 96, 5-amino-1-[3-fluorotetrahydropyran-4-yl]-3-[4-[[(2-methoxybenzoyl)amino]methyl]phenyl]pyrazole-4-carboxamide] | 1 to 10 | < 0.01 | < 0.01 | – | 0.01 to 0.1 |
| COc1ccc(F)cc1C(=O)NCc1ccc(-c2nn([C@H](C)C(F)(F)F)c(N)c2C(N)=O)cc1 (single isomer, unassigned) [Example 163a, 5-amino-3-[4-[[(5-fluoro-2-methoxy-benzoyl)amino]methyl]phenyl]-1-(2,2,2-trifluoro-1-methyl-ethyl)pyrazole-4-carboxamide] | 1 to 10 | < 0.01 | < 0.01 | – | < 0.01 |
| COc1ccc(F)cc1C(=O)NCc1ccc(-c2nn([C@H](C)C(F)(F)F)c(N)c2C(N)=O)cc1 (single isomer, unassigned) [Example 163b, 5-amino-3-[4-[[(5-fluoro-2-methoxy-benzoyl)amino]methyl]phenyl]-1-(2,2,2-trifluoro-1-methyl-ethyl)pyrazole-4-carboxamide] | 1 to 10 | < 0.01 | < 0.01 | 0.01 to 0.1 | – |
| COc1ccccc1C(=O)NCc1ccc(-c2nn(C3CCCC3)c(N)c2C(N)=O)cc1 [Example 1, 5-amino-1-cyclopentyl-3-[4-[[(2-methoxybenzoyl)amino]methyl]phenyl]pyrazole-4-carboxamide] | 0.1 to 1 | < 0.01 | < 0.01 | < 0.01 | – |

— patent US11826351B2, “Compounds useful as kinase inhibitors” (Loxo Oncology, Inc., priority 2015, dated 2023)
